Laboratory results from patent publication US20250034127A1, “AUTOPHAGY INDUCING COMPOUNDS AND USES THEREOF, IN PARTICULAR FOR DISEASES OF THE CNS” (Samsara Therapeutics Inc., priority 2021, published 2025).
Like-named read-outs stand apart in the source and are kept apart here.

Experiments:
[1] = Bioavailability / brain and plasma pharmacokinetics after oral dosing; format: in vivo; conditions: CD1 mice; for half-life / bioavailability: mouse
Text: The compounds according to the invention have good properties for oral dosing and readily cross the blood brain barrier.

[2] = system: primary spinal cord lower motor neurons (MNs) from SOD1 G93A Tg rats; assay: Cellular model of Amyotrophic Lateral Sclerosis (glutamate injury); format: cell-based, rat
Description: Compounds 157 (particularly) preferred), 185 and 196 were selected example compounds if this invention to evaluate in this model. This model (run by Neuro-Sys SAS, France) evaluates the protective effects of test compounds on primary spinal cord lower motor neurons (MNs) from SOD1 G93A Tg rats, after a glutamate injury. The MNs are pre-treated with the test compounds for 1 hour prior to exposure to glutamate, and readouts are measured 24 hours later. This model functions as an in vitro model of Amyotrophic Lateral Sclerosis. […] Any substances which can attenuate one or more of these effects can be considered to have protective effects in the model and may be useful as a new therapeutic agent for the treatment or prevention of ALS.
Genotyping of SOD1 Tg embryos: Pregnant female rat SODIG93A (Sprague Dawley, Taconic), of 14 days of gestation were obtained fromTaconic Bioscience. On the day of the dissection (from pregnant females at 14 days of gestation), a piece of each embryo brain (˜3 mm) was placed in a 2 mL tube free DNase with a new scalpel. The DNA was extracted with the SYBR Green Extract-N-Amp tissue PCR kit (Sigma Aldrich). Briefly, 120 μL of extraction solution was put on each piece of embryo heads. Then, they were incubated for 10 min at room temperature. At the end of this incubation period, the heads were incubated for 5 min at 95° C. Immediately after this last incubation, 100 μL of neutralizing solution was added; each DNA extract was diluted at 1/40 and stored at +4° C. until use. SOD1G93A gene was determined using genomic fragment with human SOD1 primers (5′-[…]-3′ (SEQ ID NO: 1); 5′-[…]-3′ (SEQ ID NO: 2)). The SOD1 primers were diluted at 3 μM in sterile ultrapure water. Briefly, a mix for PCR was prepared with ultrapure water (4 μL per sample), primer at 3 μM (2 μL per sample) and Master Mix (10 μL per sample). In a PCR 96 wells plate, 16 μL of PCR mix was added in each well. 4 μL of each diluted DNA was added according to a plan deposit. The RT-PCR was ran using the CFX96 Biorad RT-PCR system, using the following program: Initial denaturation (95° C., 20 sec)/45 cycles (95° C., 10 sec; 65° C., 10 sec; 72° C., 30 sec)/Melt curve (95° C., 15 sec; 64° C., 1 min; 90° C., 30 sec; 60° C. 15 sec). The amplification plots and melt curves were analyzed with the Biorad software. The results for each sample were compared to negative control (ultrapure water) and to the positive control (DNA from Tg embryos).
Rat spinal cord motor neurons (MNs) were be cultured as described by Wang et al. 2013 and Boussicault et al., 2020. Briefly, pregnant female rats of 14 days gestation (Sprague Dawley; Taconic) were killed using a deep anesthesia with CO2 chamber and a cervical dislocation. Then, fetuses were removed from the uterus and immediately placed in ice-cold L15 Leibovitz medium with a 2% penicillin (10,000 U/ml) and streptomycin (10 mg/ml) solution (PS) and 1% bovine serum albumin (BSA).
Spinal cords were treated for 20 min at 37° C. with a trypsin-EDTA solution at a final concentration of 0.05% trypsin and 0.02% EDTA. The dissociation was stopped by addition of Dulbecco's modified Eagle's medium (DMEM) with 4.5 g/liter of glucose, containing DNAse I grade II (final concentration 0.5 mg/mL) and 10% fetal calf serum (FCS). Cells were mechanically dissociated by three forced passages through the tip of a 10-ml pipette. Cells were then centrifuged at 515×g for 10 min at 4° C. The supernatant was discarded, and the pellet was resuspended in a defined culture medium consisting of Neurobasal medium with a 2% solution of B27 supplement, 2 mmol/liter of L-glutamine, 2% of PS solution, and 10 ng/ml of brain-derived neurotrophic factor (BDNF). Viable cells were counted in a Neubauer cytometer, using the trypan blue exclusion test. The cells were seeded at a density of 20,000 per well in 96-well plates precoated with poly-L-lysine and will be cultured at 37° C. in an air (95%)—CO2 (5%) incubator. […]

[3] = system: primary culture of dopaminergic Tyrosine hydroxylase (TH)-positive neurons; assay: Cellular model of Parkinson's disease (MPTP/MPP+ injury); format: cell-based, rat; conditions: for decrease in α-syn area per dopaminergic TH positive neuron / increase in the length of the neurite network of dopaminergic TH positive neurons / increase in the number of dopaminergic TH positive neurons: compared to MPP+ injury alone
Text: This model (run by Neuro-Sys SAS, France) is based on a primary culture of dopaminergic Tyrosine hydroxylase (TH)-positive neurons injured with the dopaminergic neurons-specific toxin (DA-toxin) 1-methyl-4-phenyl-1,2,3,6 tetrahydropyridine (MPTP, a prodrug of MPP^+) (Dauer and Przedborski, 2003). Any substances reducing DA-toxin neurotoxicity may be useful as a new therapeutic agent for the treatment or prevention of PD.
Primary culture of mesencephalic neurons: Rat dopaminergic neurons were cultured as described by Visanji et al., 2008 and Callizot et al., 2019. Briefly, pregnant female rat (Wistar) of 15 days of gestation were killed using a deep anesthesia with CO2 chamber and a cervical dislocation. The midbrains obtained from 15-day-old rat embryos (Janvier, France) were dissected under a microscope. The embryonic midbrains will be removed and placed in ice-cold medium of Leibovitz (L15) containing 2% of Penicillin-Streptomycin (PS) and 1% of bovine serum albumin (BSA). The ventral portion of the mesencephalic flexure, a region of the developing brain rich in dopaminergic neurons, was used for the cell preparations.
The midbrains were dissociated by trypsinisation for 20 min at 37° C. (solution at a final concentration of 0.05% trypsin and 0.02% EDTA). The reaction was stopped by the addition of Dulbecco's modified Eagle's medium (DMEM) containing DNAase I grade II (0.5 mg/mL) and 10% of foetal calf serum (FCS). Cells were then mechanically dissociated by 3 passages through a 10 ml pipette. Cells were then centrifuged at 180×g for 10 min at +4° C. on a layer of BSA (3.5%) in L15 medium. The supernatant was discarded, and the cell pellets re-suspended in a defined culture medium consisting of Neurobasal supplemented with B27 (2%), L-glutamine (2 mM) and 2% of PS solution and 10 ng/mL of Brain-derived neurotrophic factor (BDNF) and 1 ng/ml of Glial-Derived Neurotrophic Factor (GDNF). Viable cells were counted in a Neubauer cytometer using the trypan blue exclusion test. The cells were seeded at a density of 40,000 cells/well in 96 well-plates (pre-coated with poly-L-lysine) and maintained in a humidified incubator at 37° C. in 5% CO2/95% air atmosphere. Half of the medium was changed every 2 days with fresh medium. The wells of first and last lines and columns […] (to avoid any edge effect) and were be filled with sterile water.
• i) Pre-incubation. On day 6 of culture, the test compounds were dissolved in PBS or DMSO and incubated for 1 hour before the MPTP exposure. • ii) Injury. One hour after the application of test compound, MPTP was added to a final concentration of 4 μM, diluted in control medium still in presence of compounds/inhibitors for 48 h. Test compounds were tested on one culture in 96-well plate (n=6 culture wells per condition).
Immunostaining: TH and α-Synuclein. 48 Hours after intoxication, the cell culture supernatant was removed, and the cells were fixed by a solution of 4% paraformaldehyde in PBS, pH=7.3 for 20 min at room temperature. The cells were washed twice in PBS, and then permeabilized. Non-specific sites were blocked with a solution of PBS containing 0.1% of saponin and 1% FCS for 15 min at room temperature. The cultures were incubated with: (a) monoclonal anti-Tyrosine Hydroxylase (TH) antibody produced in mouse at dilution of 1/10000 in PBS containing 1% FCS, 0.1% saponin, for 2 hours at room temperature, and (b) polyclonal anti-alpha synuclein (α-synuclein) antibody produced in rabbit at dilution of 1/200 in PBS containing 1% FCS, 0.1% saponin, for 2 h at room temperature.
Automatic computer analysis. For each condition, 20 pictures (representing the whole well area) were automatically taken using ImageXpress® (Molecular Devices) at 10× magnification (20 pictures, for TH and α-synuclein into TH neurons) using the same acquisition parameters. From images, analyses was directly and automatically performed by MetaXpress® (Molecular Devices). […]

[4] = brain, oral dose of 30 mg/kg, read-out: half-life in the brain (converted)
[5] = plasma, oral, 30 mg/kg, read-out: half-life in plasma (converted)

| SMILES | maximum concentration in brain plasma ([1]; oral dose of 30 mg/kg) | time of maximum concentration in brain plasma ([1]; oral dose of 30 mg/kg) | half-life [1, 4] | bioavailability ([1]; plasma, 30 mg/kg, oral) | half-life [1, 5] | effects in the in vitro model of ALS [2] | increase in neurite network length ([2]; 0.1 μM, 0.5 μM and 1 μM, compared to glutamate injury alone) | abnormal TDP43 accumulation in the cytoplasm resulting from glutamate injury ([2]; 0.1 μM, 0.5 µM, 1 μM and 10 μM) | effects in the in vitro model of PD based on MPP+ injury [3] | decrease in α-syn area per dopaminergic TH positive neuron ([3]; 1 μM) | increase in the length of the neurite network of dopaminergic TH positive neurons ([3]; 1 μM) | increase in the number of dopaminergic TH positive neurons ([3]; 1 μM) | abnormal cytoplasmic TDP-43 accumulation resulting from glutamate injury ([2]; 0.1 μM, 0.5 µM and 1 μM) | decrease in α-syn area per dopaminergic TH positive neuron ([3]; 500 nM, 1 μM and 10 μM) | increase in the length of the neurite network of dopaminergic TH positive neurons ([3]; 500 nM, 1 μM and 10 μM) | increase in the number of dopaminergic TH positive neurons ([3]; 500 nM, 1 μM and 10 μM) |
| --- | --- | --- | --- | --- | --- | --- | --- | --- | --- | --- | --- | --- | --- | --- | --- | --- |
| C[C@H]1CN(C(=O)c2csc(-c3cnn(-c4ccccc4)c3)n2)CCN1 [Compound 157, (3S)-3-methyl-1-[2-(1-phenyl-1H-pyrazol-4-yl)-1,3-thiazole-4-carbonyl]piperazine] | 2153 ng/mL | 1.5 h | 108 min | 81% | 108 min | positive effects | > 20% | fully abolished | positive effects | 21% | 35% | 27% | – | – | – | – |
| CCN1CCC(NC(=O)c2csc(-c3cnn(-c4ccccc4)c3)n2)CC1 [Compound 185, N-(1-ethylpiperidin-4-yl)-2-(1-phenyl-1H-pyrazol-4-yl)-1,3-thiazole-4-carboxamide] | 3457 ng/mL | 1 h | 780 min | 100% | 1080 min | positive effects | – | – | positive effects | – | – | – | fully abolished | > 14% | > 27% | > 22% |
